Assay results from patent US20060293362A1, “Nitro-substituted hydroxyindoles, their use as inhibitors of phosphodiesterase 4, and processes for preparing them” (priority 2005, published 2006).

Columns and labels:
[1] = tested on: pulmonary eosinophil infiltration; test: Inhibition of late-phase eosinophilia 48 h after inhalative ovalbumin challenge in actively sensitized Brown Norway rats; assay type: in vivo; settings: 2 h prior to allergen challenge, BAL 48 h after challenge
Method: The inhibition exerted by the substances according to the invention on pulmonary eosinophil infiltration is examined in male Brown Norway rats (200-250 g) which have been actively sensitized against ovalbumin (OVA). The sensitization is effected by subcutaneously injecting a suspension of 10 μg of OVA, together with 20 mg of aluminium hydroxide as adjuvant, in 0.5 ml of physiological sodium chloride solution per animal on days 1, 14 and 21. In addition to this, each of the animals is injected at the same time with 0.25 ml of Bordetalla pertussis vaccine dilution i.p. On the 28th day of the experiment, the animals are placed individually in open 11 Plexiglass boxes which are connected to a head/nose exposure appliance. The animals are exposed to an aerosol consisting of a 1.0% suspension of ovalbumin (Allergen Challenge). The ovalbumin aerosol is generated using a compressed air (0.2 MPa)-driven nebulizer (Bird micro nebulizer, Palm Springs Calif., USA). The exposure time is 1 hour, with normal controls likewise being nebulized for 1 hour with an aerosol consisting of a 0.9% solution of sodium chloride.
48 hours after the allergen challenge, there is a massive immigration of eosinophilic granulocytes into the lungs of the animals. At this time, the animals are anaesthetized with an overdose of ethylurethane (1.5 g/kg of body weight, given i.p.) and a bronchoalveolar lavage (BAL) is carried out using 3×4 ml of Hank's balance solution. The total cell count, and the number of eosinophilic granulocytes, in the pooled BAL liquid are then determined using an automatic haemocytometer (Bayer Diagnostics Technicon H1E). For each animal, the eosinophils (EOS) in the BAL are calculated in 10^6/animal: EOS/μl×BAL recovery (ml)=EOS/animal. Two control groups (nebulization with physiological sodium chloride solution and nebulization with OVA solution) are included in each test.
The percentage inhibition of the eosinophilia in the substance-treated experimental group is calculated using the following formula: {((OVAC−SC)−(OVAD−SC))/(OVAC−SC)}×100%=% inhibition
(SC=control group treated with vehicle and challenged with 0.9% sodium chloride solution; OVAC=control group treated with vehicle and challenged with 1% of ovalbumin suspension; OVAD=experimental group treated with substance and challenged with 1% of ovalbumin suspension)
The test substances are administered 2 hours prior to the allergen challenge intraperitoneally or orally as a suspension in 10% polyethylene glycol 300 and 0.5% 5-hydroxyethyl cellulose or per inhalation as a mixture with lactose. The control groups are treated with the vehicle in accordance with the manner in which the test substance is administered.

PDE 4 = test: Inhibition of phosphodiesterase 4 (SPA assay, enzyme preparation from human PMNLs); assay type: biochemical; settings: cytosolic PDE 4 fraction from human PMNLs; 0.5 μM [3H]-cAMP; 100 μM cGMP
Method: The PDE 4 activity is determined using enzyme preparations from human […] (PMNLs). Human blood (buffy coats) was anticoagulated with citrate. The platelet-rich plasma in the supernatant is separated from the erythrocytes and leucocytes by centrifuging at 700 […]g for 20 minutes at room temperature (RT). The PMNLs for the PDE 4 determination are isolated by means of a subsequent dextran sedimentation followed by a gradient centrifugation using Ficoll-Paque. After the cells have been washed twice, the erythrocytes which are still present are lysed within 6 minutes by adding 10 ml of hypotonic buffer (155 mM NH4Cl, 10 mM NaHCO3, 0.1 mM EDTA, pH=7.4) at 4° C. The PMNLs, which are still intact, are washed a further two times with PBS and lysed by ultrasonication. The supernatant obtained after centrifuging at 48 000×g at 4° C. for one hour contains the cytosolic PDE 4 fraction and is used for the PDE 4 measurements.
The phosphodiesterase activity is measured using a modified Amersham Pharmacia Biotech method, i.e. an SPA (scintillation proximity assay) assay. The reaction mixtures contain buffer (50 mM tris-HCl (pH 7.4), 5 mM MgCl2, 100 μM cGMP), varying concentrations of the inhibitors, and the corresponding enzyme preparation. The reaction is started by adding the substrate, i.e. 0.5 μM [3H]-cAMP. The final volume is 100 μl. Test substances are prepared as stock solutions in DMSO. The concentration of DMSO in the reaction mixture is 1% v/v. This DMSO concentration has no effect on PDE activity. After the reaction has been started by adding the substrate, the samples are incubated at 37° C. for 30 minutes. The reaction is stopped by adding a defined quantity of SPA beads and the samples are measured in a beta counter after one hour. The nonspecific enzyme activity (i.e. the blank) is determined in the presence of 100 μM rolipram and subtracted from the test values. The incubation mixtures for the PDE 4 assay contain 100 μM cGMP in order to inhibit any contamination of PDE 3 which may be present.

[2] = tested on: pulmonary neutrophil infiltration; test: Inhibition of lipopolysaccharide (LPS)-induced pulmonary neutrophilia in Lewis rats; assay type: in vivo; settings: 2 h prior to LPS provocation, BAL 6 h after provocation
Method: The ability of the substances according to the invention to inhibit pulmonary neutrophil infiltration is examined in male Lewis rats (200-350 g). On the day of the experiment, the animals are placed individually in open 1 l Plexiglass boxes which are connected to a head/nose exposure appliance. The animals are exposed to an aerosol consisting of a suspension of lipopolysaccharide (100 μg of LPS/ml of 0.1% hydroxylamine solution) in PBS (LPS provocation). The LPS/hydroxylamine aerosol is generated using a compressed air (0.2 MPa)-driven nebulizer (Bird micro nebulizer, Palm Springs Calif., USA). The exposure time is 40 minutes, with normal controls likewise being nebulized for 40 minutes with an aerosol consisting of a 0.1% solution of hydroxylamine in PBS.
6 hours after the LPS provocation, there is a maximal and massive immigration of neutrophilic granulocytes into the lungs of the animals. At this time, the animals are anaesthetized with an overdose of ethylurethane (1.5 g/kg of body weight, given i.p.) and a bronchoalveolar lavage (BAL) is carried out using 3×4 ml of Hank's balance solution. The total cell count, and the number of neutrophilic granulocytes, in the pooled BAL liquid are then determined using an automatic haemocytometer (Bayer Diagnostics Technicon H1E). In the case of each animal, the neutrophils (NEUTRO) in the BAL are calculated in 10^6/animal: NEUTRO/μl×BAL recovery (ml)=NEUTRO/animal.
Two control groups (nebulization with a 0.1% hydroxylamine solution in PBS and nebulization with 100 μg of LPS/ml of 0.1% hydroxylamine solution in PBS) are included in each test. The percentage inhibition of the neutrophilia in the substance-treated experimental group is calculated using the following formula: {((LPSC−SC)−(LPSD−SC))/(LPSC−SC)}×100%=% inhibition
SC=control group treated with vehicle and challenged with 0.1% hydroxylamine solution; LPSC=control group treated with vehicle and challenged with LPS (100 μg/ml of 0.1% hydroxylamine solution); LPSD=experimental group treated with substance and challenged with LPS (100 μg/ml of 0.1% hydroxylamine solution)
The test substances are administered 2 hours prior to the LPS provocation, as a suspension in 10% polyethylene glycol 300 and 0.5% 5-hydroxyethyl cellulose orally or per inhalation as a mixture with lactose. The control groups are treated with the vehicle in accordance with the mode of administration used for the test substance.

Structure (SMILES)	Inhibition of eosinophilia ([1]; 0.1 mg/kg i.t.)	Inhibition of eosinophilia ([1]; 10 mg/kg i.p.)	Inhibition of eosinophilia ([1]; 30 mg/kg p.o.)	IC50 (PDE 4)	Inhibition of neutrophilia ([2]; 0.1 mg/kg i.t.)	Inhibition of neutrophilia ([2]; 1 mg/kg p.o.)	Inhibition of eosinophilia ([1]; 0.01 mg/kg i.t.)	Inhibition of neutrophilia ([2]; 0.01 mg/kg i.t.)	Inhibition of eosinophilia ([1]; 0.001 mg/kg i.t.)	Inhibition of neutrophilia ([2]; 0.001 mg/kg i.t.)	melting point
O=C(Nc1c(Cl)cncc1Cl)C(=O)c1cn(Cc2cccc([N+](=O)[O-])c2)c2c(O)cccc12 [Comparative Compound A]	no effect	33%	31%	2 nM	no effect	39%	–	–	–	–	–
O=C(Nc1c(Cl)cncc1Cl)C(=O)c1cn(Cc2c(F)cccc2F)c2c(O)cccc12 [Comparative Compound B, N-(3,5-dichloropyridin-4-yl)[1-(2,6-difluorobenzyl)-7-hydroxyindol-3-yl] glyoxylic acid amide]	35%	38%	30%	2 nM	38%	31%	no effect	no effect	–	–	–
O=C(Nc1c(Cl)cncc1Cl)C(=O)c1cn(Cc2ccccc2Cl)c2c(O)cccc12 [Comparative Compound C, (N-3,5-dichloropyridin-4-yl)[1-(2-chlorobenzyl)-7-hydroxyindol-3-yl] glyoxylic acid amide]	62%	30%	32%	0.6 nM	31%	34%	no effect	no effect	–	–	–
O=C(Nc1c(Cl)cncc1Cl)C(=O)c1cn(Cc2ccc(Cl)cc2[N+](=O)[O-])c2c(O)cccc12 [Compound 1, N-(3,5-dichloropyrdin-4-yl)-[1-(4-chloro-2-nitrobenzyl)-7-hydroxyindol-3-yl]glyoxylic acid amide]	–	57%	51%	0.9 nM	–	49%	–	–	55%	51%	–
O=C(Nc1c(Cl)cncc1Cl)C(=O)c1cn(Cc2c(F)cccc2[N+](=O)[O-])c2c(O)cccc12 [Compound 2, N-(3,5-dichloropyridine-4-yl)[1-(6-fluoro-2-nitrobenzyl)-7-hydroxyindole-3-yl)glyoxylic acid amide]	–	–	–	0.6 nM	–	–	–	–	–	–	308 to 310 °C
Cc1ccc(Cn2cc(C(=O)C(=O)Nc3c(Cl)cncc3Cl)c3cccc(O)c32)cc1[N+](=O)[O-] [Compound 3, N-(3,5-dichloropyridine-4-yl)-[7-hydroxy-1-(4-methyl-3-nitrobenzyl)-indol-3-yl]-glyoxylic acid amide]	–	–	–	8 nM	–	–	–	–	–	–	–
Cc1c(Cn2cc(C(=O)C(=O)Nc3c(Cl)cncc3Cl)c3cccc(O)c32)cccc1[N+](=O)[O-] [Compound 4, N-(3,5-dichloropyridine-4-yl)-[7-hydroxy-1-(2-methyl-3-nitrobenzyl)-indol-3-yl]-glyoxylic acid amide]	–	–	–	2 nM	–	–	–	–	–	–	229 to 232 °C (dec.)
Cc1ccc([N+](=O)[O-])c(Cn2cc(C(=O)C(=O)Nc3c(Cl)cncc3Cl)c3cccc(O)c32)c1 [Compound 5, N-(3,5-dichloropyridine-4-yl)-[7-hydroxy-1-(5-methyl-2-nitrobenzyl)-indol-3-yl]-glyoxylic acid amide]	–	–	–	38 nM	–	–	–	–	–	–	297 to 300 °C (dec.)
O=C(Nc1c(Cl)c[n+]([O-])cc1Cl)C(=O)c1cn(Cc2ccc(Cl)cc2[N+](=O)[O-])c2c(O)cccc12 [Compound 6, N-(3,5-dichloro-1-oxo-pyridine-4-yl)-[1-(4-chloro-2-nitrobenzyl)-7-hydroxyindol-3-yl]-glyoxylic acid amide]	–	–	–	4 nM	–	–	–	–	–	–	–
